According to patent publication US6399642B2, “Benzimidazole topoisomerase poisons” (Rutgers, The State University of New Jersey, priority 1998, dated 2002):

Biological target: T1, human topoisomerase I (Homo sapiens, UniProt P11387)
T1 construct: unnamed fusion partner (recombinant fusion protein); made in house
T1 sequence (P11387 1-765): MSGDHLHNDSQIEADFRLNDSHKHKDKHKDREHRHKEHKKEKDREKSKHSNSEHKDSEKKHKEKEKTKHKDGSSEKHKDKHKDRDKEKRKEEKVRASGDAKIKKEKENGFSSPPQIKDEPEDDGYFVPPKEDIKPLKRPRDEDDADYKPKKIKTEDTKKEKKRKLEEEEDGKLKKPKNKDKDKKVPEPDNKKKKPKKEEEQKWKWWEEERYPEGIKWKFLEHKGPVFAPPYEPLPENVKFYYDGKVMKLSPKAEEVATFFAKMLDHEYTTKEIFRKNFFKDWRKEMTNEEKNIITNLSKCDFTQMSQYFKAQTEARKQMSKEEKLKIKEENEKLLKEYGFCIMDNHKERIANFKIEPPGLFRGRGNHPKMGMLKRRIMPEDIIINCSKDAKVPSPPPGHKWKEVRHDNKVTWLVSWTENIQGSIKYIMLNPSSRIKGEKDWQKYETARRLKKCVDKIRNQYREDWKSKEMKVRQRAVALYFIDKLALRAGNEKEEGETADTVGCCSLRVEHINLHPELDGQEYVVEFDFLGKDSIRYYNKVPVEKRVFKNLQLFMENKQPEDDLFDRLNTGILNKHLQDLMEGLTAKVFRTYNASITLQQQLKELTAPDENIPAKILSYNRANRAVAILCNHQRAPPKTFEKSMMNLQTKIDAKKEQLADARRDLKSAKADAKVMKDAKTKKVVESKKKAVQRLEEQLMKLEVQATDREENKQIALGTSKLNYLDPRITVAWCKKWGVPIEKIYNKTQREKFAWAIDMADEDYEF
Assay: Test A. Topoisomerase I Cleavage Assay
Format: biochemical
Conditions: concentration relative to compound 5 producing the same cleavage on plasmid DNA in the presence of human topoisomerase I
Description: Test A. Topoisomerase I Cleavage Assay.
Representative compounds of the invention were evaluated in a cleavage assay using recombinant topoisomerases I. This assay was preformed as described by B. Gatto et al. Cancer Res., 1996, 56, 2795-2800. Human topoisomerase I was isolated as a recombinant fusion protein using a T7 expression system. Plasmid YEpG was purified by the alkali lysis method followed by phenol deproteination and CsCl/ethidium isopycnic centrifiigation as described by Maniatis, T.; Fritsch, E. F.; Sambrook, J. Molecular Cloning, a Laboratory Manual; Cold Spring Harbor Laboratory: Cold Spring Harbor, N.Y. 1982; pp 149-185. The end-labeling of the plasmid was accomplished by digestion with a restriction enzyme followed by end-filling with Klenow polymerase as previously described by Liu, L. F.; Rowe, T. C.; Yang, L.; Tewey, K. M.; Chen, G. L. “Cleavage of DNA by mammalian topoisomerase II,” J. Biol. Chem. 1983, 258, 15365. […] Topoisomerase I cleavage values are reported as REC, Relative Effective Concentration (i.e., concentrations relative to compound 5, whose value is arbitrarily assumed as 1) that is able to produce the same cleavage on the plasmid DNA in the presence of human topoisomerase I.

Structure (SMILES): FC(F)(F)c1nc2cc(-c3nc4cc(-c5nc6cc(-c7ccccc7)ccc6[nH]5)ccc4[nH]3)ccc2[nH]1 [Compound 5, 5-Phenyl-2-[2′(2″-trifluoromethylbenzimidazol-5″yl)benzimidazol-5′-yl]benzimidazole]
- Topoisomerase I cleavage, REC (Relative Effective Concentration): 1
